# Measured values taken from PMC7854729 (Nature Communications, 2021).
# Where “and” joins values, the source holds several entries; their conditions need not be identical. Equal values may be shown once. Read-outs that look alike come from different tables or passages of the source.
# Experiments:
# [1] = tested on: SARS-CoV; details: cited from earlier work
# [2] = tested on: PLpro from MERS; details: cited from earlier work
# [3] = tested on: Vero E6 cells; details: cited from earlier work
# [4] = tested on: SARS-CoV-2; experiment: microbe, parasite or virus in culture; assay type: cell-based, SARS-CoV-2 (nCoV/Washington/1/2020) in Vero E6 cells; details: for EC50: Severe acute respiratory syndrome coronavirus 2, Vero C1008, 24 h; for Percent Spike Positive Cells: relative to DMSO treated cells, single replicates
# [5] = target: SARS-CoV-2 PLpro (Severe acute respiratory syndrome coronavirus 2, UniProt P0DTD1); experiment: biochemical
smiles,measurement,setting,value
"Cc1ccc(N)cc1C(=O)N[C@H](C)c1cccc2ccccc12 [Compound 1, 5-amino-2-methyl-N-[(1R)-1-naphthalen-1-ylethyl]benzamide]",potency in SARS-CoV-infected Vero E6 cells,[1],good potency
same,inhibition of MERS PLpro,[2],not inhibited
same,cytotoxicity,[3],low cytotoxicity
same,inhibition of virus replication,[4],inhibiting virus replication
same,EC50,[4],1.4 ± 0.65 µM
"CCCCNC(=O)Nc1ccc(C)c(C(=O)N[C@H](C)c2cccc3ccccc23)c1 [Compound 5, 5-(butylcarbamoylamino)-2-methyl-N-[(1R)-1-naphthalen-1-ylethyl]benzamide]",IC50,[5]; IC50,16.8 µM and 32.8 µM
same,"PLpro assay signal (source data Figure 2, single replicates)","[5]; Log(M) -3.30103, listed as 5 (Snyder539)",225 and 216 and 235
same,"PLpro assay signal (source data Figure 2, single replicates)","[5]; Log(M) -3.60206, listed as 5 (Snyder539)",256 and 292 and 307
same,"PLpro assay signal (source data Figure 2, single replicates)","[5]; Log(M) -4, listed as 5 (Snyder539)",289 and 427 and 447
same,"PLpro assay signal (source data Figure 2, single replicates)","[5]; Log(M) -4.30103, listed as 5 (Snyder539)",464 and 626 and 554
same,"PLpro assay signal (source data Figure 2, single replicates)","[5]; Log(M) -4.69897, listed as 5 (Snyder539)",802 and 736 and 827
same,"PLpro assay signal (source data Figure 2, single replicates)","[5]; Log(M) -5, listed as 5 (Snyder539)",945 and 917 and 894
same,"PLpro assay signal (source data Figure 2, single replicates)","[5]; Log(M) -5.39794, listed as 5 (Snyder539)",1120 and 1187 and 1137
same,"PLpro assay signal (source data Figure 2, single replicates)","[5]; Log(M) -5.69897, listed as 5 (Snyder539)",1190 and 1202 and 1324
same,"PLpro assay signal (source data Figure 2, single replicates)","[5]; Log(M) -6.09691, listed as 5 (Snyder539)",1485 and 1470 and 1518
same,"PLpro assay signal (source data Figure 2, single replicates)","[5]; Log(M) -6.39794, listed as 5 (Snyder539)",1389 and 1269 and 1337
same,EC50,[4]; read-out: EC50,2.5 µM
same,inhibition of virus replication,"[4]; Vero E6, SARS-CoV-2",inhibiting virus replication
same,Percent Spike Positive Cells,[4]; [Drug] 0.1 uM,115%
same,Percent Spike Positive Cells,[4]; [Drug] 1 uM,115%
same,Percent Spike Positive Cells,[4]; [Drug] 10 uM,69% and 115% and 92%
"Cc1ccc(NC(=O)Oc2ccc([N+](=O)[O-])cc2)cc1C(=O)N[C@H](C)c1cccc2ccccc12 [Compound 6, 5-(((4-nitrophenoxy)carbonyl)amino)-2-methyl-N-[(1R)-1-naphthalen-1-ylethyl]benzamide]","PLpro assay signal (source data Figure 2, single replicates)","[5]; Log(M) -3.30103, listed as 6 (Snyder538)",62 and 61 and 69
same,"PLpro assay signal (source data Figure 2, single replicates)","[5]; Log(M) -3.60206, listed as 6 (Snyder538)",86 and 78 and 83
same,"PLpro assay signal (source data Figure 2, single replicates)","[5]; Log(M) -4, listed as 6 (Snyder538)",127 and 161 and 203
same,"PLpro assay signal (source data Figure 2, single replicates)","[5]; Log(M) -4.30103, listed as 6 (Snyder538)",120 and 170 and 193
same,"PLpro assay signal (source data Figure 2, single replicates)","[5]; Log(M) -4.69897, listed as 6 (Snyder538)",420 and 406 and 486
same,"PLpro assay signal (source data Figure 2, single replicates)","[5]; Log(M) -5, listed as 6 (Snyder538)",662 and 534 and 618
same,"PLpro assay signal (source data Figure 2, single replicates)","[5]; Log(M) -5.39794, listed as 6 (Snyder538)",926 and 988 and 896
same,"PLpro assay signal (source data Figure 2, single replicates)","[5]; Log(M) -5.69897, listed as 6 (Snyder538)",1105 and 1269 and 1030
same,"PLpro assay signal (source data Figure 2, single replicates)","[5]; Log(M) -6.09691, listed as 6 (Snyder538)",1318 and 1309 and 1349
same,"PLpro assay signal (source data Figure 2, single replicates)","[5]; Log(M) -6.39794, listed as 6 (Snyder538)",1380 and 1317 and 1379
same,IC50,"[5]; pH 7.3, read-out: IC50",7 ± 0.6 µM
same,inhibition of virus replication,"[4]; Vero E6, SARS-CoV-2",inhibiting virus replication
same,Percent Spike Positive Cells,[4]; [Drug] 0.1 uM,92% and 115% (2×)
same,Percent Spike Positive Cells,[4]; [Drug] 1 uM,115%
same,Percent Spike Positive Cells,[4]; [Drug] 10 uM,46% and 69%
"CCCCC(=O)Nc1ccc(C)c(C(=O)N[C@H](C)c2cccc3ccccc23)c1 [Compound 7, 5-pentanoylamino-2-methyl-N-[(1R)-1-naphthalen-1-ylethyl]benzamide]","PLpro assay signal (source data Figure 2, single replicates)","[5]; Log(M) -3.30103, listed as 7 (Snyder514)",189 and 225 and 281
same,"PLpro assay signal (source data Figure 2, single replicates)","[5]; Log(M) -3.60206, listed as 7 (Snyder514)",257 and 276 and 274
same,"PLpro assay signal (source data Figure 2, single replicates)","[5]; Log(M) -4, listed as 7 (Snyder514)",332 and 331 and 303
same,"PLpro assay signal (source data Figure 2, single replicates)","[5]; Log(M) -4.30103, listed as 7 (Snyder514)",346 and 354 and 361
same,"PLpro assay signal (source data Figure 2, single replicates)","[5]; Log(M) -4.69897, listed as 7 (Snyder514)",672 and 717 and 815
same,"PLpro assay signal (source data Figure 2, single replicates)","[5]; Log(M) -5, listed as 7 (Snyder514)",856 and 922 and 1036
same,"PLpro assay signal (source data Figure 2, single replicates)","[5]; Log(M) -5.39794, listed as 7 (Snyder514)",1160 and 1233 and 1196
same,"PLpro assay signal (source data Figure 2, single replicates)","[5]; Log(M) -5.69897, listed as 7 (Snyder514)",1260 and 1362 and 1272
same,"PLpro assay signal (source data Figure 2, single replicates)","[5]; Log(M) -6.09691, listed as 7 (Snyder514)",1429 and 1375 and 1302
same,"PLpro assay signal (source data Figure 2, single replicates)","[5]; Log(M) -6.39794, listed as 7 (Snyder514)",1493 and 1486 and 1598
same,IC50,"[5]; pH 7.3, read-out: IC50",12.7 ± 1.3 µM
same,EC50,[4]; read-out: EC50,5.2 ± 4.2 µM
same,inhibition of virus replication,"[4]; Vero E6, SARS-CoV-2",inhibiting virus replication
same,Percent Spike Positive Cells,[4]; [Drug] 0.1 uM,115% (2×) and 92%
same,Percent Spike Positive Cells,[4]; [Drug] 1 uM,69% (2×) and 115%
same,Percent Spike Positive Cells,[4]; [Drug] 10 uM,46% and 23% and 35%
